Reference: PubChem BioAssay AID1918956 (Molecular Pharmacology Branch, DTP, NCI, 2023)

Tested on: OVCAR-5 complex spheroids, viability
Experiment: Anticancer human tumor OVCAR-5 cell line growth inhibition;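 also: spheroids exposed to agents for seven days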;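 as to viability, T/C: 100% = DMSO vehicle control wells viability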
Settings: for IC50: curve of first compound; for viability, T/C: stronger effect = lower value
Excerpt: Multicellular complex tumor spheroid response to LSD1 Inhibitor Iadademstat in combination with a variety of drugs and investigational agents in selected tumor cell lines
The current study was undertaken to assess response to LSD1 inhibitors in combination with standard-of-care drugs and investigational agents in solid tumor complex spheroid models as well as in the K-562 leukemia. Complex spheroids include a stromal component modeled by human endothelial cells (HUVEC) and fibroblasts modeled by human mesenchymal stem cells (MSCs). The concentration ranges selected for each drug and investigational agent were based upon clinically achievable concentrations if the clinical Cmax of the agent was known.
Compounds. The drugs and investigational agents used in this study are listed on Table 1. All of the agents used, including staurosporine (NSC755774) and gemcitabine (NSC613327), were obtained from the Developmental Therapeutics Program, NCI. FDA-approved anticancer drugs are available from the NCI at http://dtp.nci.nih.gov/branches/dscb/oncology_drugset_explanation.html. Drugs and investigational agents were >95% pure by proton nuclear magnetic resonance (NMR) and liquid chromatography/mass spectrometry (LC/MS). Stock solutions were prepared at 400x in DMSO, stored at -70 degrees C, and diluted in fresh medium prior to their use. The final concentration of DMSO in cell culture wells never exceeded 0.25% (v/v). The FDA-approved anticancer drug set is available from the Developmental Therapeutics Program at https://dtp.cancer.gov/organization/dscb/obtaining/available_plates.htm. All drugs and investigational agents were tested over a range starting from a high concentration at or near the clinical Cmax and decreasing in half-log increments. If the clinical Cmax for an agent had not been determined, the highest concentration tested was 10 microM.
Cell Lines. The patient-derived cancer cell (PDC) lines: 292921-168-R-J2-PDC, K24384-001-R-PDC, and 521955-158-R2-J5-PDC pancreatic carcinomas, 556581-035-R-J1 ovarian carcinoma, 324938-238-R-J1-PDC, 855422-203-R-J1-PDC and 883617-216-R-J1-PDC urothelial bladder carcinomas, 743489-274-T-PDC renal cell carcinoma, 138582-R-J1 Merkel cell tumor, K60290-347-R-J1 and K57222-313-R-J1-PDC glioblastomas, 653999-131-R-J2-PDC, LG0703-F948-PDC, and 349418-098-R-PDC non-small cell lung carcinomas, 885512-296-R-J2-PDC, 171881-019-R-J1-PDC breast carcinomas and 186277-243-T-J2-PDC and 233499-124-R-J2-PDC colon carcinomas were obtained from the NCI Patient-Derived Models Repository (PDMR, https://pdmr.cancer.gov). The established cell lines NCI/ADR-RES (RRID:CVCL_14520 and OVCAR-5 (RRID:CVCL_1628) ovarian carcinomas, 786-O (RRID:CVCL_1051) and A498 […] renal cell carcinoma, NCI-H211 (ATCC, cat. CRL-5824; RRID:CVCL_1529), NCI-H196 (ATCC, cat. CRL-5823, RRID:CVCL_1509), SW 1271 (ATCC, cat. CRL-2177, RRID:CVCL_1716) and NCI-H1876 (ATCC, cat. CRL-5902, RRID:CVCL_1503) small cell lung carcinomas, MDA-MB-231 (RRID:CVCL_0062) and MDA-MB-468 (RRID:CVCL_0419)breast carcinomas (10-12). Pooled donor human umbilical vein endothelial cells (HUVEC, Lonza, cat. CC-2519) and human mesenchymal stem cells (hMSC, Lonza, cat. PT-2501) were purchased from Lonza (Walkersville, MD).
Cell Culture. All cells were maintained in an incubator at 37 degrees C and 5% CO2 with 95% humidity. The PDC lines were cultured according to standard operating procedures established by the NCI PDMR (https://pdmr.cancer.gov). Briefly all PDCs were thawed and cultured in Matrigel-coated flasks prepared with a working solution of 1X Ham's F-12 nutrient mix, without supplementation (Invitrogen, Waltham, MA, cat. 11765054), 100 U/mL penicillin-streptomycin (Invitrogen, cat. 15140122), and 2.5% Matrigel (Corning Inc., Corning, NY, cat. 354248) for the first three passages. […]

[1] = second compound 0.1 µM, first compound 0.0316 µM
[2] = second compound 0.1 µM, first compound 0.1 µM
[3] = second compound 0.1 µM, first compound 0.316 µM
[4] = second compound 0.1 µM, first compound 1 µM
[5] = second compound 0.1 µM, first compound 3.16 µM
[6] = second compound 0.1 µM, first compound 10 µM
[7] = second compound 0.316 µM, first compound 0.0316 µM
[8] = second compound 0.316 µM, first compound 0.1 µM
[9] = second compound 0.316 µM, first compound 0.316 µM
[10] = second compound 0.316 µM, first compound 1 µM
[11] = second compound 0.316 µM, first compound 3.16 µM
[12] = second compound 0.316 µM, first compound 10 µM
[13] = second compound 1 µM, first compound 0.0316 µM
[14] = second compound 1 µM, first compound 0.1 µM
[15] = second compound 1 µM, first compound 0.316 µM
[16] = second compound 1 µM, first compound 1 µM
[17] = second compound 1 µM, first compound 3.16 µM
[18] = second compound 1 µM, first compound 10 µM
[19] = second compound 3.16 µM, first compound 0.0316 µM
[20] = second compound 3.16 µM, first compound 0.1 µM
[21] = second compound 3.16 µM, first compound 0.316 µM
[22] = second compound 3.16 µM, first compound 1 µM
[23] = second compound 3.16 µM, first compound 3.16 µM
[24] = second compound 3.16 µM, first compound 10 µM
[25] = second compound 10 µM, first compound 0.0316 µM
[26] = second compound 10 µM, first compound 0.1 µM
[27] = second compound 10 µM, first compound 0.316 µM
[28] = second compound 10 µM, first compound 1 µM
[29] = second compound 10 µM, first compound 3.16 µM
[30] = second compound 10 µM, first compound 10 µM

CC1(C)CCC(CN2CCN(c3ccc(C(=O)NS(=O)(=O)c4ccc(NCC5CCOCC5)c([N+](=O)[O-])c4)c(Oc4cnc5[nH]ccc5c4)c3)CC2)=C(c2ccc(Cl)cc2)C1 + NC1CC1c1ccc(-c2cccc(O)c2)cc1
IC50 (second compound 0.1 µM): 7.44 µM
IC50 (second compound 0.316 µM): 7.76 µM
IC50 (second compound 1 µM): 7.37 µM
IC50 (second compound 3.16 µM): 7.61 µM
IC50 (second compound 10 µM): 7.57 µM
viability, T/C [1]: 99.4%
viability, T/C [2]: 97.3%
viability, T/C [3]: 110%
viability, T/C [4]: 97.2%
viability, T/C [5]: 103%
viability, T/C [6]: 32.1%
viability, T/C [7]: 107%
viability, T/C [8]: 112%
viability, T/C [9]: 106%
viability, T/C [10]: 101%
viability, T/C [11]: 100%
viability, T/C [12]: 35.6%
viability, T/C [13]: 110%
viability, T/C [14]: 92.4%
viability, T/C [15]: 93.3%
viability, T/C [16]: 105%
viability, T/C [17]: 94.4%
viability, T/C [18]: 33.7%
viability, T/C [19]: 103%
viability, T/C [20]: 86.9%
viability, T/C [21]: 88.5%
viability, T/C [22]: 106%
viability, T/C [23]: 96%
viability, T/C [24]: 35.7%
viability, T/C [25]: 89.3%
viability, T/C [26]: 85%
viability, T/C [27]: 85.9%
viability, T/C [28]: 86%
viability, T/C [29]: 85%
viability, T/C [30]: 38.9%

Nc1ccn(C2OC(CO)C(O)C2(F)F)c(=O)n1 (stereo not given) + NC1CC1c1ccc(-c2cccc(O)c2)cc1
IC50 (second compound 0.1 µM): < 0.000949 µM
IC50 (second compound 0.316 µM): < 0.000949 µM
IC50 (second compound 1 µM): < 0.000949 µM
IC50 (second compound 3.16 µM): < 0.000949 µM
IC50 (second compound 10 µM): < 0.000949 µM
viability, T/C (second compound 0.1 µM, first compound 0.000949 µM): 25.5%
viability, T/C (second compound 0.1 µM, first compound 0.003 µM): 27.5%
viability, T/C (second compound 0.1 µM, first compound 0.00949 µM): 26.3%
viability, T/C (second compound 0.1 µM, first compound 0.03 µM): 27.9%
viability, T/C (second compound 0.1 µM, first compound 0.0949 µM): 24.9%
viability, T/C (second compound 0.1 µM, first compound 0.3 µM): 26.1%
viability, T/C (second compound 0.316 µM, first compound 0.000949 µM): 26.9%
viability, T/C (second compound 0.316 µM, first compound 0.003 µM): 26.6%
viability, T/C (second compound 0.316 µM, first compound 0.00949 µM): 28%
viability, T/C (second compound 0.316 µM, first compound 0.03 µM): 27.6%
viability, T/C (second compound 0.316 µM, first compound 0.0949 µM): 27.1%
viability, T/C (second compound 0.316 µM, first compound 0.3 µM): 28.5%
viability, T/C (second compound 1 µM, first compound 0.000949 µM): 27.1%
viability, T/C (second compound 1 µM, first compound 0.003 µM): 25%
viability, T/C (second compound 1 µM, first compound 0.00949 µM): 24.1%
viability, T/C (second compound 1 µM, first compound 0.03 µM): 27.9%
viability, T/C (second compound 1 µM, first compound 0.0949 µM): 24.8%
viability, T/C (second compound 1 µM, first compound 0.3 µM): 25.4%
viability, T/C (second compound 3.16 µM, first compound 0.000949 µM): 27.5%
viability, T/C (second compound 3.16 µM, first compound 0.003 µM): 28.6%
viability, T/C (second compound 3.16 µM, first compound 0.00949 µM): 27.1%
viability, T/C (second compound 3.16 µM, first compound 0.03 µM): 27.9%
viability, T/C (second compound 3.16 µM, first compound 0.0949 µM): 29.5%
viability, T/C (second compound 3.16 µM, first compound 0.3 µM): 25.9%
viability, T/C (second compound 10 µM, first compound 0.000949 µM): 29%
viability, T/C (second compound 10 µM, first compound 0.003 µM): 29.1%
viability, T/C (second compound 10 µM, first compound 0.00949 µM): 28.6%
viability, T/C (second compound 10 µM, first compound 0.03 µM): 26.9%
viability, T/C (second compound 10 µM, first compound 0.0949 µM): 28.9%
viability, T/C (second compound 10 µM, first compound 0.3 µM): 28.4%

O=C(c1cc(Cc2n[nH]c(=O)c3ccccc23)ccc1F)N1CCN(C(=O)C2CC2)CC1 + NC1CC1c1ccc(-c2cccc(O)c2)cc1
IC50 (second compound 0.1 µM): > 10 µM
IC50 (second compound 0.316 µM): > 10 µM
IC50 (second compound 1 µM): > 10 µM
IC50 (second compound 3.16 µM): > 10 µM
IC50 (second compound 10 µM): > 10 µM
viability, T/C [1]: 97.6%
viability, T/C [2]: 112%
viability, T/C [3]: 102%
viability, T/C [4]: 88%
viability, T/C [5]: 76.9%
viability, T/C [6]: 74.9%
viability, T/C [7]: 114%
viability, T/C [8]: 104%
viability, T/C [9]: 99.4%
viability, T/C [10]: 93.7%
viability, T/C [11]: 85.3%
viability, T/C [12]: 73.8%
viability, T/C [13]: 94.9%
viability, T/C [14]: 105%
viability, T/C [15]: 93.7%
viability, T/C [16]: 81.2%
viability, T/C [17]: 81.5%
viability, T/C [18]: 72.3%
viability, T/C [19]: 97.9%
viability, T/C [20]: 86.9%
viability, T/C [21]: 96.9%
viability, T/C [22]: 83%
viability, T/C [23]: 71%
viability, T/C [24]: 65.5%
viability, T/C [25]: 95.8%
viability, T/C [26]: 87%
viability, T/C [27]: 70.5%
viability, T/C [28]: 81.9%
viability, T/C [29]: 73.2%
viability, T/C [30]: 60.2%
